From PubChem BioAssay (NCI) come the findings set out here.

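All cell lines were grown in 96-well plates and treated with compound for 48 hours. GI50: concentration for 50% inhibition of growth. Definition used: TGI = concentration required for complete inhibition of growth.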 Bounds are passed on as bounds.

Among the test systems are UACC-257 melanoma; IGROV1 ovarian; RXF 393 renal; OVCAR-8 ovarian; CAKI-1 renal; RPMI-8226 leukemia; EKVX NSCLC; U251 CNS; HCC-2998 colon; COLO 205 colon.
Common to all, as to experiment: NCI tumour cell line growth inhibition, 48 h

In the case of `Cc1cccc(C)c1NC(=O)CCC/C(CC(=O)c1ccc(F)cc1)=N\NC(=O)C(=O)NN`, the TGI in the experiment with UACC-257 melanoma, in the experiment with IGROV1 ovarian, with RXF 393 renal, in the experiment with OVCAR-8 ovarian, with CAKI-1 renal and in the experiment on RPMI-8226 leukemia was > 100 µM in each case. For the same molecule, the TGI in the experiment on EKVX NSCLC, in the experiment with U251 CNS, with HCC-2998 colon and with COLO 205 colon was > 100 µM each time.

As to `O=[N+]([O-])c1cccc(-c2nc(-c3ccc(Cl)cc3Cl)cn2-c2ccccc2)c1`, the GI50 in the experiment with UACC-257 melanoma was 1.41 µM; in the experiment on IGROV1 ovarian it was 1.2 µM; in the experiment with RXF 393 renal, 0.823 µM; with OVCAR-8 ovarian, 0.947 µM; in the experiment with CAKI-1 renal it was 0.477 µM; in the experiment with RPMI-8226 leukemia it was 0.00546 µM. Moreover, the GI50 in the experiment with EKVX NSCLC was 0.56 µM; in the experiment with U251 CNS, 0.614 µM; in the experiment with HCC-2998 colon, 2.99 µM; with COLO 205 colon it was 0.485 µM. The TGI with UACC-257 melanoma worked out at 10.7 µM; with IGROV1 ovarian, 3.86 µM; in the experiment on RXF 393 renal it was 2.08 µM; with OVCAR-8 ovarian, 2.64 µM; in the experiment with CAKI-1 renal, 1.21 µM; in the experiment on RPMI-8226 leukemia, 1.79 µM. In addition, the TGI is 2.5 µM in the experiment on EKVX NSCLC, 1.26 µM in the experiment with U251 CNS, > 17.6 µM in the experiment on HCC-2998 colon and 0.987 µM in the experiment on COLO 205 colon.

Turning to `C[P+](C)(C)C`, the TGI in the experiment on UACC-257 melanoma, in the experiment with IGROV1 ovarian, with RXF 393 renal, in the experiment with OVCAR-8 ovarian, in the experiment with CAKI-1 renal and with RPMI-8226 leukemia was > 100 µM in each case. Besides, the TGI in the experiment with EKVX NSCLC, with U251 CNS, with HCC-2998 colon and in the experiment on COLO 205 colon was > 100 µM in each case.

Take `c1ccc(CN2CCc3[nH]c4ccccc4c3C2)cc1`: the TGI was 37.1 µM with UACC-257 melanoma; > 79.5 µM in the experiment on IGROV1 ovarian; > 100 µM in the experiment with RXF 393 renal; > 77.4 µM in the experiment with OVCAR-8 ovarian; > 100 µM with CAKI-1 renal; 69.3 µM in the experiment with RPMI-8226 leukemia. Also, the TGI is > 86.8 µM in the experiment on EKVX NSCLC, 53.8 µM in the experiment with U251 CNS, 30.1 µM in the experiment on HCC-2998 colon and 31.9 µM with COLO 205 colon.

As for `Cc1ccc(C(=O)NCCCOc2ccc(N3C(N)=NC(N)=NC3(C)C)cc2Cl)cc1S(=O)(=O)F`, the GI50 in the experiment with UACC-257 melanoma was > 100 µM; in the experiment on IGROV1 ovarian, 4.42 µM; in the experiment with RXF 393 renal it was > 100 µM; in the experiment with OVCAR-8 ovarian, 85.8 µM; with CAKI-1 renal, > 100 µM; with RPMI-8226 leukemia, 24.7 µM. The GI50 was > 100 µM in the experiment with EKVX NSCLC, 7.72 µM in the experiment on U251 CNS, 24 µM in the experiment on HCC-2998 colon and 38.1 µM in the experiment with COLO 205 colon. The TGI in the experiment with UACC-257 melanoma, with IGROV1 ovarian, in the experiment on RXF 393 renal, in the experiment with OVCAR-8 ovarian, with CAKI-1 renal and in the experiment on RPMI-8226 leukemia was > 100 µM throughout. The TGI in the experiment on EKVX NSCLC, in the experiment with U251 CNS, in the experiment on HCC-2998 colon and in the experiment on COLO 205 colon was > 100 µM in each case.

On to `CC(C)c1ccc(C2NC(=S)NC3=C2c2ccccc2C3=O)cc1` (centres undefined), for which the TGI with UACC-257 melanoma is > 58.7 µM; in the experiment with IGROV1 ovarian, > 54.6 µM; with RXF 393 renal, 23.9 µM; with OVCAR-8 ovarian it was > 62.1 µM; with CAKI-1 renal, > 58.5 µM; in the experiment on RPMI-8226 leukemia, > 62.4 µM. The TGI in the experiment with EKVX NSCLC is > 58.6 µM; in the experiment on U251 CNS it was > 58.7 µM; in the experiment on HCC-2998 colon, > 51.7 µM; with COLO 205 colon, > 59.2 µM.

As to `Cc1ccc(S(=O)(=O)N/N=C(\c2nc3ccc([N+](=O)[O-])cc3[nH]c2=O)C(O)c2ccc([N+](=O)[O-])cc2)cc1` (centres undefined), the TGI in the experiment on UACC-257 melanoma, with IGROV1 ovarian, in the experiment on RXF 393 renal, in the experiment on OVCAR-8 ovarian, with CAKI-1 renal and in the experiment with RPMI-8226 leukemia was > 100 µM each time. Moreover, the TGI with EKVX NSCLC, in the experiment with U251 CNS, in the experiment on HCC-2998 colon and with COLO 205 colon was > 100 µM throughout.

For the molecule `O=C(Cc1nc2sc3c(c2c(=O)[nH]1)CCCC3)Nc1ccccc1`, the TGI is > 100 µM in the experiment with IGROV1 ovarian; 69.9 µM with RXF 393 renal; > 100 µM in the experiment on OVCAR-8 ovarian; > 100 µM in the experiment with CAKI-1 renal; > 100 µM in the experiment with RPMI-8226 leukemia; > 100 µM with EKVX NSCLC. Besides, the TGI in the experiment on U251 CNS, in the experiment with HCC-2998 colon and in the experiment on COLO 205 colon was > 100 µM each time.

As for `Cc1ccc(Nc2cc(Cl)c([N+](=O)[O-])cc2[N+](=O)[O-])cc1`, the GI50 in the experiment with UACC-257 melanoma is 5.25 µM; with IGROV1 ovarian it was 3.89 µM; in the experiment on RXF 393 renal, 2.57 µM; in the experiment on OVCAR-8 ovarian it was 3.37 µM; in the experiment on CAKI-1 renal, 4.19 µM; in the experiment with RPMI-8226 leukemia it was 2.92 µM. In addition, the GI50 in the experiment with EKVX NSCLC is 14.7 µM; with U251 CNS it was 3.36 µM; with HCC-2998 colon, 2.26 µM; in the experiment on COLO 205 colon it was 2.11 µM. Also, the TGI with UACC-257 melanoma came out at 15.7 µM; with IGROV1 ovarian it was 10.4 µM; with RXF 393 renal it was 6.66 µM; with OVCAR-8 ovarian, 13.9 µM; with CAKI-1 renal, 17.4 µM; with RPMI-8226 leukemia, 9.45 µM. In addition, the TGI in the experiment with EKVX NSCLC amounted to 29.7 µM; in the experiment with U251 CNS, 12.4 µM; in the experiment with HCC-2998 colon it was 4.81 µM; in the experiment on COLO 205 colon, 3.92 µM.

Consider `S=c1o[nH]c(-c2ccccc2)c1C=Nc1ccccc1`, for which the TGI with UACC-257 melanoma, in the experiment with IGROV1 ovarian, in the experiment with RXF 393 renal, with OVCAR-8 ovarian, with CAKI-1 renal and in the experiment with RPMI-8226 leukemia was > 100 µM in each case. Further, the TGI with EKVX NSCLC, in the experiment with U251 CNS, with HCC-2998 colon and in the experiment on COLO 205 colon was > 100 µM throughout.

Regarding `N#Cc1ccc(/C=C(/C(=O)c2ccccc2)c2ccccc2)cc1`, the TGI is 29.6 µM in the experiment on UACC-257 melanoma; > 57.4 µM in the experiment on IGROV1 ovarian; 39.9 µM with RXF 393 renal; 22.1 µM in the experiment on OVCAR-8 ovarian; 32.1 µM in the experiment on CAKI-1 renal; 8.82 µM in the experiment with RPMI-8226 leukemia. In addition, the TGI came to 42.9 µM with EKVX NSCLC, 25 µM in the experiment on U251 CNS, 30.6 µM in the experiment on HCC-2998 colon and 37.3 µM with COLO 205 colon.
